This note sets out measurements from patent publication US11939305B1, “Ethyl 2-(5-(3-fluorophenyl)-4-phenyl-4H-1,2,4-triazol-3-ylthio)acetate as an antimicrobial compound” (KING FAISAL UNIVERSITY, priority 2023, dated 2024).

Common to all, as to type: cell-based
The test system of test [1] is Bacillus cereus. Description: Agar plate disc-diffusion, antibacterial inhibition zone. Here is the method:
(§1) The agar plate disc-diffusion method was applied. […] The discs were then placed onto the surface of agar plates (nutrient agar for bacteria and Sabouraud's dextrose agar for fungi) seeded with the test organism. Each plate contained 15 mL of the agar medium, previously seeded with 0.2 mL of the broth culture of each organism pregrown for 18 hours. The plates were incubated at 37° C. for 48 hours, and 72 hours for fungi. The inhibition zones were measured in mm. Discs impregnated with DMSO were used as a control, and its inhibition zone was subtracted from the tested compound actual inhibition zone.
For orientation: Agar diffusion results depend on both activity and mobility in agar.

Test [2] deals with Escherichia coli. The test is described as above. Here is the method: as §1
Test [3] deals with Pseudomonas aeruginosa. The description is as above. As to the method:
as §1

Test [4] has as its system Staphylococcus aureus. The description is as above. Here is the method:
as §1

For test [5], the system named is Aspergillus flavus. Description: Agar plate disc-diffusion, antifungal inhibition zone. As to the method:
as §1

Test [6] relates to Chrysosporium keratinophilum. The test is described as above. As to the method:
as §1

Test [7] relates to different microbes. Description: Antimicrobial screening, overall statement. The following applies: against different microbes (bacteria and fungi of Tables 1 and 2). Here is the method:
The agar plate disc-diffusion method was applied. Sterilized filter papers (6 mm in diameter) were wetted with 10 μL of a solution of ethyl 2-(5-(3-fluorophenyl)-4-phenyl-4H-1,2,4-triazol-3-ylthio)acetate (III) to be tested, containing 10 mg/mL in DMSO, and the discs were allowed to air dry. The discs were then placed onto the surface of agar plates (nutrient agar for bacteria and Sabouraud's dextrose agar for fungi) seeded with the test organism. Each plate contained 15 mL of the agar medium, previously seeded with 0.2 mL of the broth culture of each organism pregrown for 18 hours. The plates were incubated at 37° C. for 48 hours, and 72 hours for fungi. The inhibition zones were measured in mm. Discs impregnated with DMSO were used as a control, and its inhibition zone was subtracted from the tested compound actual inhibition zone.

Setting [8] is: A = concentration of comp. = 10,000 μL.
Setting [9] is: B = concentration of comp. = 30,000 μL.
Setting [10] is: C = concentration of comp. = 50,000 μL.

Regarding `CCOC(=O)CSc1nnc(-c2cccc(F)c2)n1-c1ccccc1` [III, ethyl 2-(5-(3-fluorophenyl)-4-phenyl-4H-1,2,4-triazol-3-ylthio)acetate], the inhibition zone in test [1] (setting [8]) was found to be 24 mm; in test [1] (setting [9]) it was 27 mm; in test [1] (setting [10]), 39 mm; in test [2] (setting [8]), 26 mm; in test [2] (setting [9]), 34 mm; in test [2] (setting [10]), 50 mm. Also, the inhibition zone in test [3] (setting [8]) is listed as 25 mm; in test [3] (setting [9]) it was 26 mm; in test [3] (setting [10]), 44 mm; in test [4] (setting [8]), 18 mm; in test [4] (setting [9]), 21 mm; in test [4] (setting [10]) it was 30 mm. In addition, the inhibition zone is recorded as 20 mm in test [5] (setting [8]); 23 mm in test [5] (setting [9]); 29 mm in test [5] (setting [10]); 25 mm in test [6] (setting [8]); 29 mm in test [6] (setting [9]); 47 mm in test [6] (setting [10]). Also, the “antimicrobial activity (in words)” value in test [7] is “excellent antimicrobials activities”.

Regarding `O=C(O)c1cn(C2CC2)c2cc(N3CCNCC3)c(F)cc2c1=O` [Cip., ciprofloxacin, reference compound], the inhibition zone in test [1] (setting [8]) worked out at 29 mm; in test [1] (setting [9]), 30 mm; in test [1] (setting [10]), 42 mm; in test [2] (setting [8]), 30 mm; in test [2] (setting [9]), 39 mm; in test [2] (setting [10]), 60 mm. Further, the inhibition zone in test [3] (setting [8]) stood at 29 mm; in test [3] (setting [9]), 30 mm; in test [3] (setting [10]) it was 53 mm; in test [4] (setting [8]) it was 43 mm; in test [4] (setting [9]), 44 mm; in test [4] (setting [10]) it was 53 mm. Also, the inhibition zone is 29 mm in test [5] (setting [8]); 30 mm in test [5] (setting [9]); 42 mm in test [5] (setting [10]); 29 mm in test [6] (setting [8]); 30 mm in test [6] (setting [9]); 53 mm in test [6] (setting [10]).
